The values below come from patent US9102678B2, “Compounds and methods for inhibiting mitotic progression” (Millennium Pharmaceuticals, Inc., priority 2004, dated 2015).

A value given as a limit tells only on which side of the number the result lay.

For orientation: IC50 means the concentration needed to halve the response being measured.

In this assay the target is T1, recombinant murine Aurora A enzyme (Mus musculus, UniProt P97477).
T1 construct: hexahistidine (His6) (N); made in house; host or cells: insect cells, baculovirus (Bac-to-Bac, Invitrogen)
T1 sequence (P97477 whole entry): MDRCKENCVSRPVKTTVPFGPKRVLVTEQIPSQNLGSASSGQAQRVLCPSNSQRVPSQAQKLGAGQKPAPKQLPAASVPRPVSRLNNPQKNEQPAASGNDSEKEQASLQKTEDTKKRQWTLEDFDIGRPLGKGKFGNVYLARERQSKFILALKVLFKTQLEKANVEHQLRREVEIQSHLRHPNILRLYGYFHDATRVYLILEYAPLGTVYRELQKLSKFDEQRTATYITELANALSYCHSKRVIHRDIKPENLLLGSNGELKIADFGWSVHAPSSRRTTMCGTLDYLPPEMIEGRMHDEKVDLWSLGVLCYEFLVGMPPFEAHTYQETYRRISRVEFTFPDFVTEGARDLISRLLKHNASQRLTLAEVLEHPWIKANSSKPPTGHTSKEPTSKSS
Put plainly: Aurora A DELFIA Kinase Assay. The format is biochemical. Particulars: mouse Aurora A, 250 μM ATP; threshold less than or equal to 100 nM; read-out: IC50.
`NC1CCN(C(=O)c2ccc(Nc3ncc4c(n3)-c3ccc(Cl)cc3C(c3c(F)cccc3F)=NC4)cc2)C1` (centres unmarked) [Compound I-196, (3-Amino-pyrrolidin-1-yl)-{4-[9-chloro-7-(2,6-difluoro-phenyl)-5H-benzo[c]pyrimido[4,5-e]azepin-2-ylamino]-phenyl}-methanone]: the IC50 is not above 100 nM. Under `O=C(c1ccc(Nc2ncc3c(n2)-c2ccc(Cl)cc2C(c2c(F)cccc2F)=NC3)cc1)N1CCNCC1` [Compound I-195, {4-[9-Chloro-7-(2,6-difluoro-phenyl)-5H-benzo[c]pyrimido[4,5-e]azepin-2-ylamino]-phenyl}-piperazin-1-yl-methanone] stands not above 100 nM. Under `CN(CCCN)C(=O)c1ccc(Nc2ncc3c(n2)-c2ccc(Cl)cc2C(c2c(F)cccc2F)=NC3)cc1` [Compound I-257, N-(3-aminopropyl)-4-{[9-chloro-7-(2,6-difluorophenyl)-5H-pyrimido[5,4-d][2]benzazepin-2-yl]amino}-N-methylbenzamide] stands not above 100 nM. With `CN(C)C1CCN(C(=O)c2cccc(Nc3ncc4c(n3)-c3ccc(Cl)cc3C(c3c(F)cccc3F)=NC4)c2)C1` (centres unmarked) [Compound I-206, 9-chloro-7-(2,6-difluorophenyl)-N-(3-{[3-(dimethylamino)pyrrolidin-1-yl]carbonyl}phenyl)-5H-pyrimido[5,4-d][2]benzazepin-2-amine] the figure was not above 100 nM; with `O=C(O)Cc1cccc(Nc2ncc3c(n2)-c2ccc(Cl)cc2C(c2ccccc2Cl)=NC3)c1` [Compound I-65, {3-[9-Chloro-7-(2-chloro-phenyl)-5H-benzo[c]pyrimido[4,5-e]azepin-2-ylamino]-phenyl}-acetic acid], not above 100 nM; with `COc1ccccc1C1=NCc2cnc(Nc3ccc(C(=O)NCCCN4CCN(C)CC4)cc3)nc2-c2ccc(Cl)cc21` [Compound I-22, 4-[9-Chloro-7-(2-methoxy-phenyl)-5H-benzo[c]pyrimido[4,5-e]azepin-2-ylamino]-N-[3-(4-methyl-piperazin-1-yl)-propyl]-benzamide], not above 100 nM. As for `CN1CCN(C(=O)Nc2ccc(Nc3ncc4c(n3)-c3ccc(Cl)cc3C(c3c(F)cccc3F)=NC4)cc2)CC1` [Compound I-280, 4-Methyl-piperazine-1-carboxylic acid {4-[9-chloro-7-(2,6-difluoro-phenyl)-5H-benzo[c]pyrimido[4,5-e]azepin-2-ylamino]-phenyl}-amide], the IC50 is not above 100 nM. With `CNC1CCN(C(=O)c2ccc(Nc3ncc4c(n3)-c3ccc(Cl)cc3C(c3ccccc3F)=NC4)cc2)C1` (centres unmarked) [Compound I-102, {4-[9-Chloro-7-(2-fluoro-phenyl)-5H-benzo[c]pyrimido[4,5-e]azepin-2-ylamino]-phenyl}-(3-methylamino-pyrrolidin-1-yl)-methanone] the figure was not above 100 nM; with `COc1cccc(F)c1C1=NCc2cnc(Nc3cccc(C(=O)N4CC(C)NC(C)C4)c3)nc2-c2ccc(Cl)cc21` (centres unmarked) [Compound I-228, 9-chloro-N-{3-[(3,5-dimethylpiperazin-1-yl)carbonyl]phenyl}-7-(2-fluoro-6-methoxyphenyl)-5H-pyrimido[5,4-d][2]benzazepin-2-amine], not above 100 nM; with `NC1CCN(C(=O)c2cc(Nc3ncc4c(n3)-c3ccc(Cl)cc3C(c3c(F)cccc3F)=NC4)ccc2Cl)CC1` [Compound I-292, N-{3-[(4-aminopiperidin-1-yl)carbonyl]-4-chlorophenyl}-9-chloro-7-(2,6-difluorophenyl)-5H-pyrimido[5,4-d][2]benzazepin-2-amine], not above 100 nM.

Take `CN(C)CCN(C)C(=O)c1ccc(Nc2ncc3c(n2)-c2ccc(Cl)cc2C(c2ccccc2F)=NC3)cc1` [Compound I-5, 4-[9-Chloro-7-(2-fluoro-phenyl)-5H-benzo[c]pyrimido[4,5-e]azepin-2-ylamino]-N-(2-dimethylamino-ethyl)-N-methyl-benzamide]: the IC50 is not above 100 nM. Under `CN(C)CC#Cc1cccc(Nc2ncc3c(n2)-c2ccc(Cl)cc2C(c2c(F)cccc2F)=NC3)c1` [Compound I-343, 9-chloro-7-(2,6-difluorophenyl)-N-{3-[3-(dimethylamino)prop-1-yn-1-yl]phenyl}-5H-pyrimido[5,4-d][2]benzazepin-2-amine] stands not above 100 nM. With `COc1ccc(Nc2ncc3c(n2)-c2ccc(Cl)cc2C(c2ccccc2Cl)=NC3)cc1OC` [Compound I-73, [9-Chloro-7-(2-chloro-phenyl)-5H-benzo[c]pyrimido[4,5-e]azepin-2-yl]-(3,4-dimethoxy-phenyl)-amine] the figure was not above 100 nM; with `CNC1CCN(C(=O)c2ccc(Nc3ncc4c(n3)-c3ccc(Cl)cc3C(c3ccccn3)=NC4)cc2)C1` (centres unmarked) [Compound I-315, 9-chloro-N-(4-{[3-(methylamino)pyrrolidin-1-yl]carbonyl}phenyl)-7-pyridin-2-yl-5H-pyrimido[5,4-d][2]benzazepin-2-amine], not above 100 nM. Under `CN(CCN)C(=O)c1ccc(Nc2ncc3c(n2)-c2ccc(Cl)cc2C(c2c(F)cccc2F)=NC3)cc1` [Compound I-252, N-(2-aminoethyl)-4-{[9-chloro-7-(2,6-difluorophenyl)-5H-pyrimido[5,4-d][2]benzazepin-2-yl]amino}-N-methylbenzamide] stands not above 100 nM; under `NC1CCN(C(=O)c2ccc(Nc3ncc4c(n3)-c3ccc(Cl)cc3C(c3c(F)cccc3F)=NC4)cc2)CC1` [Compound I-239, N-{4-[(4-aminopiperidin-1-yl)carbonyl]phenyl}-9-chloro-7-(2,6-difluorophenyl)-5H-pyrimido[5,4-d][2]benzazepin-2-amine], not above 100 nM. In the case of `O=C(O)C1CN(C(=O)c2ccc(Nc3ncc4c(n3)-c3ccc(Cl)cc3C(c3c(F)cccc3F)=NC4)cc2)CCN1` (centres unmarked) [Compound I-266, 4-(4-{[9-chloro-7-(2,6-difluorophenyl)-5H-pyrimido[5,4-d][2]benzazepin-2-yl]amino}benzoyl)piperazine-2-carboxylic acid], the IC50 was not above 100 nM.

In the case of `CNC(=O)c1ccc2c(c1)C(c1c(F)cccc1F)=NCc1cnc(Nc3ccc(C(=O)N4CC(C)NC(C)C4)cc3)nc1-2` (centres unmarked) [Compound I-376, 7-(2,6-difluorophenyl)-2-({4-[(3,5-dimethylpiperazin-1-yl)carbonyl]phenyl}amino)-N-methyl-5H-pyrimido[5,4-d][2]benzazepine-9-carboxamide], the IC50 was not above 100 nM. Regarding `NC1(C(=O)O)CCN(C(=O)c2ccc(Nc3ncc4c(n3)-c3ccc(Cl)cc3C(c3c(F)cccc3F)=NC4)cc2)CC1` [Compound I-295, 4-amino-1-(4-{[9-chloro-7-(2,6-difluorophenyl)-5H-pyrimido[5,4-d][2]benzazepin-2-yl]amino}benzoyl)piperidine-4-carboxylic acid], the IC50 was not above 100 nM. Regarding `CN(C)C1CCN(C(=O)c2ccc(Nc3ncc4c(n3)-c3ccc(Cl)cc3C(c3c(F)cccc3F)=NC4)cc2Cl)CC1` [Compound I-313, 9-chloro-N-(3-chloro-4-{[4-(dimethylamino)piperidin-1-yl]carbonyl}phenyl)-7-(2,6-difluorophenyl)-5H-pyrimido[5,4-d][2]benzazepin-2-amine], the IC50 was not above 100 nM. With `O=C(c1ccc(Nc2ncc3c(n2)-c2ccc(Cl)cc2C(c2ccccc2F)=NC3)cc1)N1CCN(CCCN2CCCCC2)CC1` [Compound I-181, {4-[9-Chloro-7-(2-fluoro-phenyl)-5H-benzo[c]pyrimido[4,5-e]azepin-2-ylamino]-phenyl}-[4-(3-piperidin-1-yl-propyl)-piperazin-1-yl]-methanone] the figure was not above 100 nM; with `COc1cccc(F)c1C1=NCc2cnc(Nc3ccc(C(=O)N4CCC(N)CC4)cc3)nc2-c2ccc(Cl)cc21` [Compound I-241, N-{4[(4-aminopiperidin-1-yl)carbonyl]phenyl}-9-chloro-7-(2-fluoro-6-methoxyphenyl)-5H-pyrimido[5,4-d][2]benzazepin-2-amine], not above 100 nM. With `COc1ccccc1C1=NCc2cnc(Nc3ccc(C(=O)NCCCN4CCOCC4)cc3)nc2-c2ccc(Cl)cc21` [Compound I-32, 4-[9-Chloro-7-(2-methoxy-phenyl)-5H-benzo[c]pyrimido[4,5-e]azepin-2-ylamino]-N-(3-morpholin-4-yl-propyl)-benzamide] the figure was not above 100 nM. With `NC1CCN(C(=O)c2ccc(Nc3ncc4c(n3)-c3ccc(Cl)cc3C(c3ccccc3F)=NC4)cc2)C1` (centres unmarked) [Compound I-103, (3-Amino-pyrrolidin-1-yl)-{4-[9-chloro-7-(2-fluoro-phenyl)-5H-benzo[c]pyrimido[4,5-e]azepin-2-ylamino]-phenyl}-methanone] the figure was not above 100 nM; with `COc1cccc(Nc2ncc3c(n2)-c2ccc(C(=O)O)cc2C(c2c(F)cccc2F)=NC3)c1` [Compound I-353, 7-(2,6-difluorophenyl)-2-[(3-methoxyphenyl)amino]-5H-pyrimido[5,4-d][2]benzazepine-9-carboxylic acid], not above 100 nM. Consider `O=C(O)c1ccc(Nc2ncc3c(n2)-c2ccc(C(=O)O)cc2C(c2ccccc2F)=NC3)cc1` [Compound I-249, 2-[(4-carboxyphenyl)amino]-7-(2-fluorophenyl)-5H-pyrimido[5,4-d][2]benzazepine-9-carboxylic acid], for which the concentration for half-maximal inhibition (IC50) is not above 100 nM. In the case of `CC1CN(C(=N)NC(=O)c2ccc(Nc3ncc4c(n3)-c3ccc(Cl)cc3C(c3c(F)cccc3F)=NC4)cc2)CC(C)N1` (centres unmarked) [Compound I-238, 4-{[9-chloro-7-(2,6-difluorophenyl)-5H-pyrimido[5,4-d][2]benzazepin-2-yl]amino}-N-[(3,5-dimethylpiperazin-1-yl)(imino)methyl]benzamide], the IC50 was not above 100 nM. Under `Cc1ccccc1C1=NCc2cnc(Nc3ccc(C(=O)N4CCN(C)CC4)cc3)nc2-c2ccc(Cl)cc21` [Compound I-11, [4-(9-Chloro-7-o-tolyl-5H-benzo[c]pyrimido[4,5-e]azepin-2-ylamino)-phenyl]-(4-methyl-piperazin-1-yl)-methanone] stands not above 100 nM. Under `CNC1CCN(C(=O)c2coc(Nc3ncc4c(n3)-c3ccc(Cl)cc3C(c3c(F)cccc3F)=NC4)n2)C1` (centres unmarked) [Compound I-375, 9-chloro-7-(2,6-difluorophenyl)-N-(4-{[3-(methylamino)pyrrolidin-1-yl]carbonyl}-1,3-oxazol-2-yl)-5H-pyrimido[5,4-d][2]benzazepin-2-amine] stands not above 100 nM.
